Measured values reported in the NIST ThermoML archive (doi:10.1016/j.jct.2008.08.012).
± gives the expanded uncertainty stated by the source.

Columns and labels:
[1] = Molar enthalpy of transition or fusion; conditions: Crystal; DSC
[2] = Crystal; for mass density: 298.15 K, 101.33 kPa, mass and volume of pellet; for Normal melting temperature: DTA

Compound | Molar enthalpy of transition or fusion [1] | mass density [2] | Normal melting temperature [2]
O=C1Cc2ccccc2CO1 [1,4-dihydro-3H-2-benzopyran-3-one] | 4.37 ± 0.112 kcal/mol | 1140 ± 10 kg/m3 | 82.73 ± 0.39 °C
O=C1CCOc2ccccc21 [2,3-dihydro-4H-1-benzopyran-4-one] | 4 ± 0.129 kcal/mol | 1140 ± 10 kg/m3 | 39.13 ± 0.39 °C
